From patent US6395893B1, “Crystallization of lactitol, crystalline lactitol product and use thereof” (Xyrofin Oy, priority 2000, dated 2002)
Like-named read-outs stand apart in the source and are kept apart here. Values belong to the compound of their own block, whether it stands above or below them.

Key:
Assay type in all cases: physicochemical
[1] = Tablet friability (Key Instruments friability tester); settings: for Friability (10 tabs): tablet, percentage weight loss, dropped 100 times
Protocol: (§1) The material under evaluation was mixed in a laboratory scale Turbula mixer for 2 minutes with 0.5% magnesium stearate as lubricant. The mixed sample was then tabletted on a Manesty 2C single punch press using a 15 mm diameter flat-faced bevelled edge punch. The compression force was adjusted by altering the drop of the top punch. The compression force is indicated by an arbitrary figure. The higher the number, the greater the compression. These figures can only be used as a comparison for each series of compressions. As soon as the material is changed or any of the machine settings are altered the numbers cannot be compared. The adjustment is such that it cannot be exactly reproduced, therefore, these figures should only be seen as a means of differentiating between samples and indicating either increasing or decreasing compression force. Tablet friability was measured using a Key Instruments friability tester. Ten tablets were dropped 100 times and the percentage weight loss recorded. Any tablets that are badly chipped are removed prior to weighing.

[2] = Tablet hardness (Key Instruments hardness tester); settings: for Hardness / Hardness (in brackets): tablet; for Hardness: 24 hours after production; for Hardness (in brackets): analysis performed during production; for Maximum hardness: tablets over the range of compression forces
Protocol: as §1, with “hardness” for “friability”, “tablet hardness tester which measures the force required to break the tablet across its diameter.” for “friability tester.”, “tested” for “dropped 100 times”, “an average reading” for “the percentage weight loss”, “recorded.” for “recorded. Any tablets that are badly chipped are removed prior to weighing.”

[3] = Viscosity of chocolate on storage (Haake RV20 viscometer); settings: chocolate made with the lactitol, held at 50° C. for one week
Protocol: (§2) The milk powder, microcrystalline lactitol, Litesse II (modified polydextrose), vanillin and cocoa liquor were mixed in a Stephan mixer with a portion of the cocoa butter. The mixture was passed through a three roll refiner to produce a flake. The flake was mixed again in the Stephan mixer and a farther portion of cocoa butter was added. The mix was re-refined with the pressures increased to produce a flake with an acceptable particle size.
The resulting flakes were stored ready for conching. Prior to conching the flakes were pre-warmed in an oven set to 50° C. The flake was added to a conche with the temperature set to 60° C. On loading the remaining cocoa butter was added to give a final fat content of 35 %. A small amount of the lecithin was added at this stage. The sample was conched for 24 hours. The remaining lecithin was added I hour prior to the removal of the batch from the conche.
For the sake of comparison the procedure was repeated identically with another batch except that the microcrystalline lactitol was replaced by standard crystalline lactitol monohydrate (Lactitol MC, Xyrofin Oy).
The viscosity of the two samples was measured using a Haake RV20 viscometer with an RC20 rheocontroller fitted. […]

[4] = Particle size distribution by sieve analysis; settings: for Coefficient of variation: of particle size
Text: Particle size distribution: Sieve analysis was used to determine the particle size.

Bulk density = settings: tapped 10 times
Protocol: (§3) Flowability: A 500 g sample was poured to a 500 ml measuring cylinder. The sample was tapped 10 times, levelled and the amount of the sample was weighed.

[5] = Hygroscopicity (humidity cabinet)
Protocol: Hygroscopicity: 10 g of the sample was weighed to a petri dish. The open dish was put into a humidity cabinet. The change in weight was measured. The humidity cabins at 25° C. and relative humidity 60% and at 40° C. and relative humidity 70% were used.

[6] = Heat of solution (calorimeter); settings: 40 g in 670 g distilled water at 25° C.
Protocol: Heat of solution: 40 g of the sample was dissolved in 670 g of distilled water at 25° C. The heat of solution was measured with a calorimeter operating in a constant temperature environment.

[7] = Particle size analysis of chocolate; settings: chocolate made with the lactitol
Protocol: as §2
There was an insignificant increase in the particle size of the chocolate made using microcrystalline lactitol (10-12 μm) compared to the one with lactitol monohydrate (9-10 μm).

Flowability = assay: Flowability
Protocol: as §3

Rate of solution = settings: 100 g in 100 g of water at 20° C., paddle mixer 250 rpm
Protocol: Rate of solution: 100 g of the sample was put in 100 g of water at 20° C. and 40° C. A small paddle mixer, 250 rpm, was used to mix the solution. During the dissolution the refractive index was measured.

[8] = Water content (Karl Fischer)
Protocol: The water content of the microcrystalline lactitol product was analyzed by the Karl Fischer method and the melting behaviour was measured by differential scanning calorimetry (DSC).
Moisture was measured using coulometric Karl Fischer titration

[9] = compression 32.5, listed as Microcrystalline Lactitol Sample
[10] = compression 33, listed as Microcrystalline Lactitol Sample
[11] = compression 33.5, listed as Microcrystalline Lactitol Sample
[12] = compression 34, listed as Microcrystalline Lactitol Sample

- Friability (10 tabs) ([1]; compression 32.5): 4.7%
- Friability (10 tabs) ([1]; compression 33): 1.79%
- Friability (10 tabs) ([1]; compression 33.5): 1.08%
- Friability (10 tabs) ([1]; compression 34): 0.34%
- Hardness ([2]; compression 32.5 (arbitrary figure)): 70 N
- Hardness (in brackets) ([2]; compression 32.5): 82 N
- Hardness ([2]; compression 33 (arbitrary figure)): 139 N
- Hardness (in brackets) ([2]; compression 33): 133 N
- Hardness ([2]; compression 33.5 (arbitrary figure)): 193 N
- Hardness (in brackets) ([2]; compression 33.5): 213 N
- Hardness ([2]; compression 34 (arbitrary figure)): 240 N
- Hardness (in brackets) ([2]; compression 34): 307 N
- Maximum hardness [2]: 240 N
SMILES: OC[C@@H](O)[C@@H](O[C@@H]1O[C@H](CO)[C@H](O)[C@H](O)[C@H]1O)[C@H](O)[C@@H](O)CO [Granulated Lactitol, lactitol]

- Viscosity change of chocolate on storage ([3]; monohydrate): considerable thickening
- Mean particle size ([4]; monohydrate): 0.47 mm
- Sieve analysis 0 ([4]; monohydrate): 0.0
- Sieve analysis >0.100 mm ([4]; monohydrate): 0.7
- Sieve analysis >0.180 mm ([4]; monohydrate): 4.8
- Sieve analysis >0.250 mm ([4]; monohydrate): 15.1
- Sieve analysis >0.315 mm ([4]; monohydrate): 25.8
- Sieve analysis >0.450 mm ([4]; monohydrate): 20.6
- Sieve analysis >0.560 mm ([4]; monohydrate): 17.9
- Sieve analysis >0.710 mm ([4]; monohydrate): 15.2
- Coefficient of variation ([4]; monohydrate): 30
- Bulk density (Bulk density; monohydrate): 360 g/500 ml
- Water sorption ([5]; 25° C. and 60% relative humidity, listed as the monohydrate, monohydrate): 0.02%
- Water sorption ([5]; 40° C. and 70% relative humidity, listed as the monohydrate, monohydrate): 0.04%
- Heat of solution ([6]; monohydrate): 15.6 cal/g
- Particle size of the chocolate ([7]; monohydrate): 9-10 μm
- Flowability (Flowability; monohydrate): 23 s
- Maximum hardness ([2]; listed as crystalline lactitol monohydrate, monohydrate): < 70 N
- Time to dissolve (Rate of solution; listed as the monohydrate, monohydrate): about 5 minutes
SMILES: OC[C@@H](O)[C@@H](O[C@@H]1O[C@H](CO)[C@H](O)[C@H](O)[C@H]1O)[C@H](O)[C@@H](O)CO [lactitol monohydrate]
- Friability results (in words) ([1]; tablets, all compression forces): all of the tablets totally disintegrating during the test

- Viscosity change of chocolate on storage [3]: no significant increase in viscosity
- Mean particle size [4]: 0.29 mm
- Sieve analysis 0 [4]: 1.6
- Sieve analysis >0.100 mm [4]: 13.0
- Sieve analysis >0.180 mm [4]: 21.1
- Sieve analysis >0.250 mm [4]: 21.6
- Sieve analysis >0.315 mm [4]: 31.5
- Sieve analysis >0.450 mm [4]: 8.3
- Sieve analysis >0.560 mm [4]: 2.3
- Sieve analysis >0.710 mm [4]: 0.6
- Coefficient of variation [4]: 39
- Bulk density (Bulk density): 325 g/500 ml
- Water sorption ([5]; 25° C. and 60% relative humidity): 0.05%
- Water sorption ([5]; 40° C. and 70% relative humidity): 0.11%
- Friability (10 tabs) ([1]; compression 32): 1.31%
- Friability (10 tabs) [1, 9]: 0.32%
- Friability (10 tabs) [1, 10]: 0.22%
- Friability (10 tabs) [1, 11]: 0.5%
- Friability (10 tabs) [1, 12]: 0.38%
- Friability (10 tabs) ([1]; compression 34.5): 0.69%
- Heat of solution [6]: 15.4 cal/g
- Particle size of the chocolate [7]: 10-12 μm
- Flowability (Flowability): 17 s
- Hardness ([2]; compression 32 (arbitrary figure)): 90 N
- Hardness (in brackets) ([2]; compression 32): 85 N
- Hardness ([2]; compression 32.5 (arbitrary figure), listed as Microcrystalline Lactitol Sample): 156 N
- Hardness (in brackets) [2, 9]: 137 N
- Hardness ([2]; compression 33 (arbitrary figure), listed as Microcrystalline Lactitol Sample): 252 N
- Hardness (in brackets) [2, 10]: 257 N
- Hardness ([2]; compression 33.5 (arbitrary figure), listed as Microcrystalline Lactitol Sample): 319 N
- Hardness (in brackets) [2, 11]: (301) N
- Hardness ([2]; compression 34 (arbitrary figure), listed as Microcrystalline Lactitol Sample): 134 N
- Hardness (in brackets) [2, 12]: (335) N
- Hardness ([2]; compression 34.5 (arbitrary figure)): 330 N
- Hardness (in brackets) ([2]; compression 34.5): (344) N
- Time to dissolve (Rate of solution): 4 min
- Water content of the product ([8]; Karl Fischer method): 3.5%
- Moisture ([8]; coulometric Karl Fischer titration): 5.1%
SMILES: OC[C@@H](O)[C@@H](O[C@@H]1O[C@H](CO)[C@H](O)[C@H](O)[C@H]1O)[C@H](O)[C@@H](O)CO [microcrystalline lactitol, lactitol]
